Source: PubChem BioAssay AID2060484 (Molecular Pharmacology Branch, DTP, NCI, 2025)
Where “and” joins values, the source holds several entries; their conditions need not be identical. Equal values may be shown once.

Tested on: SUM149PT spheroids with HUVEC/MSC, viability
Assay: Anticancer human tumor SUM149PT cell line growth inhibition [GQUAD];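 also: spheroids exposed to drugs for seven days before readout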;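 as to viability, T/C: percent viability relative to DMSO vehicle control taken as 100%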
Details: for viability, T/C: stronger effect = lower value
From the text: DNA G-quadruplex Stabilizer Agents in Combinations in Complex Spheroids
A high-throughput screen of multi-cell type tumor spheroids was designed to identify active combinations of DNA G-quadruplex stabilizer agents and targeted small molecules. Complex spheroids include a stromal component modeled by human endothelial cells (HUVEC) and fibroblasts modeled by human mesenchymal stem cells (MSCs). The concentration ranges selected for each drug and investigational agent were based upon clinically achievable concentrations if the clinical Cmax of the agent was known.
Compounds. The drugs and investigational agents: pidnarulex (CX-5461; NSC782164), APTO-253 (NSC789042), BRACO-19 (NSC847499), peposertib (NSC802822), ceralasertib (NSC780249), elimusertib (NSC800525), camonsertib (NSC841442), AZD-1390 (NSC803789), olaparib (NSC753686), talazoparib (NSC767125), ART-558 (NSC835418), sotorasib (NSC818433), MRTX-1133 (NSC836407), SN-38 (NSC673596), topotecan (NSC609699), etoposide (NSC141540), doxorubicin (NSC123127), gemcitabine (NSC613327), 5-fluorouracil (NSC19893), paclitaxel (NSC125973), vemurafenib (NSC761431), panobinostat (NSC761190), R-306465 (JNJ-16241199; NSC773264), adavosertib (NSC754352), TP-3654 (NSC805149), carboplatin (NSC241240), KSQ-4279 (NSC840948), and staurosporine (NSC755774) were obtained from the National Cancer Institute (NCI) Developmental Therapeutics Program Chemical Repository (34). The FDA-approved anticancer drug set is available from the NCI Developmental Therapeutics Program. […] The stock solutions were prepared in dimethyl sulfoxide (DMSO, Sigma-Aldrich, St. Louis, MO, cat. D2650) at 800-fold the tested concentration and stored at -70 degrees C prior to their use. All drugs and investigational agents were tested over a range starting from a high concentration at or near the clinical Cmax and decreasing in half-log increments. If the clinical Cmax for an agent had not been determined, the highest concentration tested was 10 microM.
2.3 Cell Culture. All cells were maintained in an incubator at 37 degrees C and 5% CO2 with 95% humidity. The PDC lines were cultured according to standard operating procedures established by the NCI PDMR. All PDCs were thawed and cultured in Matrigel-coated flasks prepared with a working solution of 1X Ham's F-12 nutrient mix, without supplementation (Invitrogen, cat. 11765054), 100 U/mL penicillin-streptomycin (Invitrogen, cat. 15140122), and 2.5% Matrigel (Corning Inc., cat. 354248) for the first three passages. The 857933-349-R-J2-PDC line was cultured in 6C/Colon 1B media, which includes advanced DMEM/F-12 (Thermo Fisher Scientific, cat. 12634028), 10 mM HEPES (Thermo Fisher Scientific, cat. 15630080), 1X GlutaMAX supplement (Thermo Fisher Scientific, cat. 35050061), 0.1 mg/mL primocin (InvivoGen, cat. ant-pm-2), 10% defined fetal bovine serum, heat inactivated (HyClone Laboratories Inc., cat. SH30070.03HI), 50% L-WRN conditioned media (ATCC, cat. CRL-3276), 1.25 mM N-Acetyl-L-cysteine (Sigma-Aldrich, cat. A9165), 10 mM nicotinamide (Sigma-Aldrich, cat. N0636), 1X B-27 supplement (Thermo Fisher Scientific, cat. 17504044), 1X N-2 supplement (Thermo Fisher Scientific, cat. 17502048), 10 microM Y-27632 dihydrochloride (Tocris Bioscience, cat. 1254), and 50 ng/mL human EGF recombinant protein (Thermo Fisher Scientific, cat. PHG0311). The 485176-168-R4-J1-PDC line was cultured in Panc media, which includes all 6C/Colon 1B media components plus 100 ng/mL human FGF-10 (Thermo Fisher Scientific, cat. 100-26), 500 nM SB-431542 (Selleckchem, cat. S1067), and gastrin (Tocris, cat. 3006).
[…]

CC1COCCN1c1cc(-c2ccnn2C)c2ccnc(-c3ccn[nH]3)c2n1 (stereo unspecified) + CN(C)c1ccc(Nc2c3ccc(NC(=O)CCN4CCCC4)cc3nc3cc(NC(=O)CCN4CCCC4)ccc23)cc1
IC50 (curve of first compound, second compound 0.0316 µM): 93.3 nM
IC50 (curve of first compound, second compound 0.1 µM): 92.7 nM
IC50 (curve of first compound, second compound 0.316 µM): 91.3 nM
IC50 (curve of first compound, second compound 1 µM): 89.7 nM
IC50 (curve of first compound, second compound 3.16 µM): 88.4 nM
IC50 (curve of first compound, second compound 10 µM): 65.7 nM
viability, T/C (second compound 0.0316 µM, first compound 0.0316 µM): 96.3%
viability, T/C (second compound 0.0316 µM, first compound 0.1 µM): 46.9%
viability, T/C (second compound 0.0316 µM, first compound 0.316 µM): 29.1%
viability, T/C (second compound 0.0316 µM, first compound 1 µM): 23.2%
viability, T/C (second compound 0.0316 µM, first compound 3.16 µM): 38.2%
viability, T/C (second compound 0.0316 µM, first compound 10 µM): 28%
viability, T/C (second compound 0.1 µM, first compound 0.0316 µM): 87.8%
viability, T/C (second compound 0.1 µM, first compound 0.1 µM): 47.3%
viability, T/C (second compound 0.1 µM, first compound 0.316 µM): 29.6%
viability, T/C (second compound 0.1 µM, first compound 1 µM): 29.4%
viability, T/C (second compound 0.1 µM, first compound 3.16 µM): 30%
viability, T/C (second compound 0.1 µM, first compound 10 µM): 36.1%
viability, T/C (second compound 0.316 µM, first compound 0.0316 µM): 87.5%
viability, T/C (second compound 0.316 µM, first compound 0.1 µM): 46.8%
viability, T/C (second compound 0.316 µM, first compound 0.316 µM): 26%
viability, T/C (second compound 0.316 µM, first compound 1 µM): 26.5%
viability, T/C (second compound 0.316 µM, first compound 3.16 µM): 28.1%
viability, T/C (second compound 0.316 µM, first compound 10 µM): 29.2%
viability, T/C (second compound 1 µM, first compound 0.0316 µM): 82.6%
viability, T/C (second compound 1 µM, first compound 0.1 µM): 46.6%
viability, T/C (second compound 1 µM, first compound 0.316 µM): 26.4%
viability, T/C (second compound 1 µM, first compound 1 µM): 23.7%
viability, T/C (second compound 1 µM, first compound 3.16 µM): 26.8%
viability, T/C (second compound 1 µM, first compound 10 µM): 29.4%
viability, T/C (second compound 3.16 µM, first compound 0.0316 µM): 79%
viability, T/C (second compound 3.16 µM, first compound 0.1 µM): 46.5%
viability, T/C (second compound 3.16 µM, first compound 0.316 µM): 20.7%
viability, T/C (second compound 3.16 µM, first compound 1 µM): 23.5%
viability, T/C (second compound 3.16 µM, first compound 3.16 µM): 25.6%
viability, T/C (second compound 3.16 µM, first compound 10 µM): 24.2%
viability, T/C (second compound 10 µM, first compound 0.0316 µM): 69.9%
viability, T/C (second compound 10 µM, first compound 0.1 µM): 38%
viability, T/C (second compound 10 µM, first compound 0.316 µM): 28.9%
viability, T/C (second compound 10 µM, first compound 1 µM): 24.9%
viability, T/C (second compound 10 µM, first compound 3.16 µM): 25.4%
viability, T/C (second compound 10 µM, first compound 10 µM): 21.9%

O=C(c1cc(Cc2n[nH]c(=O)c3ccccc23)ccc1F)N1CCN(C(=O)C2CC2)CC1
viability, T/C (compound 0.0316 µM): 92.5% and 110% and 104%
viability, T/C (compound 0.1 µM): 97.8% and 93.5% and 82.5%
viability, T/C (compound 0.316 µM): 92.7% and 102% and 99.8%
viability, T/C (compound 1 µM): 108% and 96.9% and 101%
viability, T/C (compound 3.16 µM): 106% and 108% and 97.4%
viability, T/C (compound 10 µM): 70.6% and 86.7% and 69.7%
IC50 (curve of compound): > 10000 nM

Cn1ncnc1[C@H]1c2n[nH]c(=O)c3cc(F)cc(c23)N[C@@H]1c1ccc(F)cc1
viability, T/C (compound 0.000999 µM): 98.5% and 103% and 109%
viability, T/C (compound 0.00316 µM): 97.1% and 96.5% and 102%
viability, T/C (compound 0.00999 µM): 97.5% and 93.8% and 91.6%
viability, T/C (compound 0.0316 µM): 81.4% and 91.5% and 83.6%
viability, T/C (compound 0.0999 µM): 68.1% (2×) and 91.5%
viability, T/C (compound 0.316 µM): 54.4% and 76.8% and 53.9%
IC50 (curve of compound): > 316 nM
